From US20250270707A1, “NON-TRIAZOLE IMIDAZOLINE AND AMIDE COMPOUNDS AND METHODS FOR INHIBITING CORROSION IN INDUSTRIAL WATER TREATMENT” (CHEMTREAT, INC., priority 2023, published 2025)

Experiments:
[1] = Control normalized Cl2 demand over time (Example 3, FIG. 3); type: physicochemical; settings: 1 ppm; compared to 50% sodium glucoheptonate (10 ppm)
Text: One liter samples of the synthetic water described above with respect to Example 1 were each dosed with the compositions in Table 7 and processed under conditions similar to Example 1.

[2] = Cl2 demand in the corrosion cell test (Examples 1 and 2); type: physicochemical
Description: (§1) One liter samples of synthetic water were each dosed with the compositions in Table 1.
(§2) The apparatus used for the corrosion testing was a Gamry Multiport Corrosion Cell and Gamry Reference 600+potentiostat with multiplexor. Copper coupons (CDA110) were added to the sample cells containing neutral water (pH 7.5), and the cells were dosed with 50 ppm of scale inhibitor (co-polymer and 2-phosphonobutane-1,2,4-yricarboxylic acid) and heated to 50° C. and maintained at this temperature throughout the testing. The cells were continuously stirred at a speed of 350 rpm. A cylindrical working electrode was submerged into the test solutions, and an LPR sweep (linear polarization resistance) was performed every hour for 18 hours. After the 0.5 hrs mark, 1 ppm of free chlorine was dosed into the corrosion cell.
(§3) One liter samples of the synthetic water described above with respect to Example 1 were each dosed with the compositions in Table 5 and processed under conditions similar to Example 1.

[3] = Corrosion rate by LPR sweep, copper coupons in synthetic water, 50° C., 1 ppm free chlorine after 0.5 hrs (Examples 1 and 2)
Description: as §1, §2, §3

Substance: sodium dicarboxylethyl coco phosphoethyl imidazoline [SDCPI]
- control normalized C12 demand over time (in words) [1]: did not result in significant loss of C12 demand
- Cl2 Demand ([2]; 1 ppm): 0.3 mg/L
- Cl2 Demand ([2]; 2 ppm): 0.9 mg/L
- Cl2 Demand ([2]; 3 ppm): 0.8 mg/L
- CR Average (10-18 hrs) ([3]; 1 ppm): 0.224 mpy
- CR Peak ([3]; 1 ppm): 0.279 mpy
- corrosion rate ([3]; 1 ppm, 0 hrs): 0.025 mpy
- corrosion rate ([3]; 1 ppm, 1 hrs): 0.279 mpy
- corrosion rate ([3]; 1 ppm, 2 hrs): 0.252 mpy
- corrosion rate ([3]; 1 ppm, 3 hrs): 0.257 mpy
- corrosion rate ([3]; 1 ppm, 4 hrs): 0.245 mpy
- corrosion rate ([3]; 1 ppm, 5 hrs): 0.214 mpy
- corrosion rate ([3]; 1 ppm, 6 hrs): 0.200 mpy
- corrosion rate ([3]; 1 ppm, 7 hrs): 0.184 mpy
- corrosion rate ([3]; 1 ppm, 8 hrs): 0.175 mpy
- corrosion rate ([3]; 1 ppm, 9 hrs): 0.174 mpy
- corrosion rate ([3]; 1 ppm, 10 hrs): 0.182 mpy
- corrosion rate ([3]; 1 ppm, 11 hrs): 0.197 mpy
- corrosion rate ([3]; 1 ppm, 12 hrs): 0.213 mpy
- corrosion rate ([3]; 1 ppm, 13 hrs): 0.226 mpy
- corrosion rate ([3]; 1 ppm, 14 hrs): 0.240 mpy
- corrosion rate ([3]; 1 ppm, 15 hrs): 0.247 mpy
- corrosion rate ([3]; 1 ppm, 16 hrs): 0.249 mpy
- corrosion rate ([3]; 1 ppm, 17 hrs): 0.241 mpy
- corrosion rate ([3]; 1 ppm, 18 hrs): 0.226 mpy
- CR Average (10-18 hrs) ([3]; 2 ppm): 0.013 mpy
- CR Peak ([3]; 2 ppm): 0.092 mpy
- corrosion rate ([3]; 2 ppm, 0 hrs): 0.0168 mpy
- corrosion rate ([3]; 2 ppm, 1 hrs): 0.0923 mpy
- corrosion rate ([3]; 2 ppm, 2 hrs): 0.0637 mpy
- corrosion rate ([3]; 2 ppm, 3 hrs): 0.0529 mpy
- corrosion rate ([3]; 2 ppm, 4 hrs): 0.0240 mpy
- corrosion rate ([3]; 2 ppm, 5 hrs): 0.0173 mpy
- corrosion rate ([3]; 2 ppm, 6 hrs): 0.0164 mpy
- corrosion rate ([3]; 2 ppm, 7 hrs): 0.0167 mpy
- corrosion rate ([3]; 2 ppm, 8 hrs): 0.0171 mpy
- corrosion rate ([3]; 2 ppm, 9 hrs): 0.0179 mpy
- corrosion rate ([3]; 2 ppm, 10 hrs): 0.0165 mpy
- corrosion rate ([3]; 2 ppm, 11 hrs): 0.0151 mpy
- corrosion rate ([3]; 2 ppm, 12 hrs): 0.0139 mpy
- corrosion rate ([3]; 2 ppm, 13 hrs): 0.0133 mpy
- corrosion rate ([3]; 2 ppm, 14 hrs): 0.0127 mpy
- corrosion rate ([3]; 2 ppm, 15 hrs): 0.0117 mpy
- corrosion rate ([3]; 2 ppm, 16 hrs): 0.0116 mpy
- corrosion rate ([3]; 2 ppm, 17 hrs): 0.0113 mpy
- corrosion rate ([3]; 2 ppm, 18 hrs): 0.0103 mpy
- CR Average (10-18 hrs) ([3]; 3 ppm): 0.042 mpy
- CR Peak ([3]; 3 ppm): 0.053 mpy
- corrosion rate ([3]; 3 ppm, 0 hrs): 0.013 mpy
- corrosion rate ([3]; 3 ppm, 1 hrs): 0.053 mpy
- corrosion rate ([3]; 3 ppm, 2 hrs): 0.039 mpy
- corrosion rate ([3]; 3 ppm, 3 hrs): 0.043 mpy
- corrosion rate ([3]; 3 ppm, 4 hrs): 0.042 mpy
- corrosion rate ([3]; 3 ppm, 5 hrs): 0.042 mpy
- corrosion rate ([3]; 3 ppm, 6 hrs): 0.044 mpy
- corrosion rate ([3]; 3 ppm, 7 hrs): 0.044 mpy
- corrosion rate ([3]; 3 ppm, 8 hrs): 0.044 mpy
- corrosion rate ([3]; 3 ppm, 9 hrs): 0.046 mpy
- corrosion rate ([3]; 3 ppm, 10 hrs): 0.046 mpy
- corrosion rate ([3]; 3 ppm, 11 hrs): 0.046 mpy
- corrosion rate ([3]; 3 ppm, 12 hrs): 0.044 mpy
- corrosion rate ([3]; 3 ppm, 13 hrs): 0.043 mpy
- corrosion rate ([3]; 3 ppm, 14 hrs): 0.042 mpy
- corrosion rate ([3]; 3 ppm, 15 hrs): 0.041 mpy
- corrosion rate ([3]; 3 ppm, 16 hrs): 0.040 mpy
- corrosion rate ([3]; 3 ppm, 17 hrs): 0.039 mpy
- corrosion rate ([3]; 3 ppm, 18 hrs): 0.038 mpy
- corrosion inhibition properties over the entire 18 hour period (in words) ([3]; Example 2, 2 ppm): good corrosion inhibition properties
